# From ChEMBL document CHEMBL1137558, “Synthesis and biological evaluation of new 2-arylcarbonyl-3-trifluoromethylquinoxaline 1,4-di-N-oxide derivatives and their reduced analogues” (2007)
# Assay: Anticancer activity against nonsmall lung cancer cells
# Assay type: functional
# Details: Homo sapiens, Cancer cell lines
row,Compound,GI50
1,O=C(c1ccco1)c1c(C(F)(F)F)nc2cc(C(F)(F)F)ccc2[n+]1[O-],47.7 µM
2,O=C(c1ccco1)c1c(C(F)(F)F)[n+]([O-])c2cc(F)c(F)cc2[n+]1[O-],0.73 µM
3,COc1ccc2c(c1)[n+]([O-])c(C(=O)c1cccs1)c(C(F)(F)F)[n+]2[O-],3.93 µM
4,O=C(c1ccco1)c1c(C(F)(F)F)[n+]([O-])c2ccc(C(F)(F)F)cc2[n+]1[O-],0.76 µM
5,O=C(c1ccco1)c1nc2ccc(C(F)(F)F)cc2[n+]([O-])c1C(F)(F)F,41.9 µM
6,O=C(c1ccco1)c1c(C(F)(F)F)[n+]([O-])c2ccc(Cl)cc2[n+]1[O-],0.36 µM
7,O=C(c1ccc2ccccc2c1)c1c(C(F)(F)F)[n+]([O-])c2ccc(Cl)cc2[n+]1[O-],1.51 µM
8,O=C(c1ccc2ccccc2c1)c1c(C(F)(F)F)[n+]([O-])c2cc(F)c(F)cc2[n+]1[O-],3.47 µM
9,O=C(c1cccs1)c1c(C(F)(F)F)[n+]([O-])c2ccc(Cl)cc2[n+]1[O-],0.07 µM

# Assay: Anticancer activity against breast cancer cells
# Assay type: functional
# Details: Homo sapiens, Cancer cell lines
row,Compound,GI50
1,O=C(c1ccco1)c1c(C(F)(F)F)nc2cc(C(F)(F)F)ccc2[n+]1[O-],38.5 µM
2,O=C(c1ccco1)c1c(C(F)(F)F)[n+]([O-])c2cc(F)c(F)cc2[n+]1[O-],0.2 µM
3,COc1ccc2c(c1)[n+]([O-])c(C(=O)c1cccs1)c(C(F)(F)F)[n+]2[O-],4.92 µM
4,O=C(c1ccco1)c1c(C(F)(F)F)[n+]([O-])c2ccc(C(F)(F)F)cc2[n+]1[O-],0.57 µM
5,O=C(c1ccco1)c1nc2ccc(C(F)(F)F)cc2[n+]([O-])c1C(F)(F)F,59.1 µM
6,O=C(c1ccco1)c1c(C(F)(F)F)[n+]([O-])c2ccc(Cl)cc2[n+]1[O-],0.28 µM
7,O=C(c1ccc2ccccc2c1)c1c(C(F)(F)F)[n+]([O-])c2ccc(Cl)cc2[n+]1[O-],1.15 µM
8,O=C(c1ccc2ccccc2c1)c1c(C(F)(F)F)[n+]([O-])c2cc(F)c(F)cc2[n+]1[O-],2.36 µM
9,O=C(c1cccs1)c1c(C(F)(F)F)[n+]([O-])c2ccc(Cl)cc2[n+]1[O-],0.08 µM

# Assay: Anticancer activity against melanoma cells
# Assay type: functional
# Details: Homo sapiens, Melanoma cell
row,Compound,GI50
1,O=C(c1ccco1)c1c(C(F)(F)F)nc2cc(C(F)(F)F)ccc2[n+]1[O-],80.6 µM
2,O=C(c1ccco1)c1c(C(F)(F)F)[n+]([O-])c2cc(F)c(F)cc2[n+]1[O-],0.56 µM
3,COc1ccc2c(c1)[n+]([O-])c(C(=O)c1cccs1)c(C(F)(F)F)[n+]2[O-],5.89 µM
4,O=C(c1ccco1)c1c(C(F)(F)F)[n+]([O-])c2ccc(C(F)(F)F)cc2[n+]1[O-],1.11 µM
5,O=C(c1ccco1)c1nc2ccc(C(F)(F)F)cc2[n+]([O-])c1C(F)(F)F,46.1 µM
6,O=C(c1ccco1)c1c(C(F)(F)F)[n+]([O-])c2ccc(Cl)cc2[n+]1[O-],0.49 µM
7,O=C(c1ccc2ccccc2c1)c1c(C(F)(F)F)[n+]([O-])c2ccc(Cl)cc2[n+]1[O-],1.23 µM
8,O=C(c1ccc2ccccc2c1)c1c(C(F)(F)F)[n+]([O-])c2cc(F)c(F)cc2[n+]1[O-],2.5 µM
9,O=C(c1cccs1)c1c(C(F)(F)F)[n+]([O-])c2ccc(Cl)cc2[n+]1[O-],0.12 µM

# Assay: Anticancer activity against ovarian cancer cells
# Assay type: functional
# Details: Homo sapiens, Cancer cell lines
row,Compound,GI50
1,O=C(c1ccco1)c1c(C(F)(F)F)nc2cc(C(F)(F)F)ccc2[n+]1[O-],40.4 µM
2,O=C(c1ccco1)c1c(C(F)(F)F)[n+]([O-])c2cc(F)c(F)cc2[n+]1[O-],0.39 µM
3,COc1ccc2c(c1)[n+]([O-])c(C(=O)c1cccs1)c(C(F)(F)F)[n+]2[O-],4.99 µM
4,O=C(c1ccco1)c1c(C(F)(F)F)[n+]([O-])c2ccc(C(F)(F)F)cc2[n+]1[O-],0.72 µM
5,O=C(c1ccco1)c1nc2ccc(C(F)(F)F)cc2[n+]([O-])c1C(F)(F)F,43 µM
6,O=C(c1ccco1)c1c(C(F)(F)F)[n+]([O-])c2ccc(Cl)cc2[n+]1[O-],0.56 µM
7,O=C(c1ccc2ccccc2c1)c1c(C(F)(F)F)[n+]([O-])c2ccc(Cl)cc2[n+]1[O-],1.2 µM
8,O=C(c1ccc2ccccc2c1)c1c(C(F)(F)F)[n+]([O-])c2cc(F)c(F)cc2[n+]1[O-],3.8 µM
9,O=C(c1cccs1)c1c(C(F)(F)F)[n+]([O-])c2ccc(Cl)cc2[n+]1[O-],0.16 µM

# Assay: Anticancer activity against human NCI60 cells
# Assay type: functional
# Details: not given
Compound,GI50,TGI
O=C(c1ccco1)c1c(C(F)(F)F)nc2cc(C(F)(F)F)ccc2[n+]1[O-],46.8 µM,89.1 µM
O=C(c1ccco1)c1c(C(F)(F)F)[n+]([O-])c2cc(F)c(F)cc2[n+]1[O-],0.38 µM,1.48 µM
COc1ccc2c(c1)[n+]([O-])c(C(=O)c1cccs1)c(C(F)(F)F)[n+]2[O-],5.01 µM,29.5 µM
O=C(c1ccco1)c1c(C(F)(F)F)[n+]([O-])c2ccc(C(F)(F)F)cc2[n+]1[O-],0.6 µM,1.48 µM
O=C(c1ccco1)c1nc2ccc(C(F)(F)F)cc2[n+]([O-])c1C(F)(F)F,47.9 µM,95.5 µM
O=C(c1ccco1)c1c(C(F)(F)F)[n+]([O-])c2ccc(Cl)cc2[n+]1[O-],0.32 µM,2.57 µM
O=C(c1ccc2ccccc2c1)c1c(C(F)(F)F)[n+]([O-])c2ccc(Cl)cc2[n+]1[O-],1.23 µM,2.63 µM
O=C(c1ccc2ccccc2c1)c1c(C(F)(F)F)[n+]([O-])c2cc(F)c(F)cc2[n+]1[O-],2.19 µM,6.46 µM
O=C(c1cccs1)c1c(C(F)(F)F)[n+]([O-])c2ccc(Cl)cc2[n+]1[O-],0.07 µM,0.5 µM

# Same assay, conditions: read-out: LC50 (the source's name)
row,Compound,CC50
1,O=C(c1ccco1)c1c(C(F)(F)F)nc2cc(C(F)(F)F)ccc2[n+]1[O-],> 100 µM
2,O=C(c1ccco1)c1c(C(F)(F)F)[n+]([O-])c2cc(F)c(F)cc2[n+]1[O-],7.76 µM
3,COc1ccc2c(c1)[n+]([O-])c(C(=O)c1cccs1)c(C(F)(F)F)[n+]2[O-],49 µM
4,O=C(c1ccco1)c1c(C(F)(F)F)[n+]([O-])c2ccc(C(F)(F)F)cc2[n+]1[O-],5.01 µM
5,O=C(c1ccco1)c1nc2ccc(C(F)(F)F)cc2[n+]([O-])c1C(F)(F)F,> 100 µM
6,O=C(c1ccco1)c1c(C(F)(F)F)[n+]([O-])c2ccc(Cl)cc2[n+]1[O-],10 µM
7,O=C(c1ccc2ccccc2c1)c1c(C(F)(F)F)[n+]([O-])c2ccc(Cl)cc2[n+]1[O-],5.5 µM
8,O=C(c1ccc2ccccc2c1)c1c(C(F)(F)F)[n+]([O-])c2cc(F)c(F)cc2[n+]1[O-],23.4 µM
9,O=C(c1cccs1)c1c(C(F)(F)F)[n+]([O-])c2ccc(Cl)cc2[n+]1[O-],2.19 µM

# Assay: Anticancer activity against colon cancer cells
# Assay type: functional
# Details: Homo sapiens, Cancer cell lines
row,Compound,GI50
1,O=C(c1ccco1)c1c(C(F)(F)F)nc2cc(C(F)(F)F)ccc2[n+]1[O-],85.4 µM
2,O=C(c1ccco1)c1c(C(F)(F)F)[n+]([O-])c2cc(F)c(F)cc2[n+]1[O-],0.19 µM
3,COc1ccc2c(c1)[n+]([O-])c(C(=O)c1cccs1)c(C(F)(F)F)[n+]2[O-],7.08 µM
4,O=C(c1ccco1)c1c(C(F)(F)F)[n+]([O-])c2ccc(C(F)(F)F)cc2[n+]1[O-],0.57 µM
5,O=C(c1ccco1)c1nc2ccc(C(F)(F)F)cc2[n+]([O-])c1C(F)(F)F,75.1 µM
6,O=C(c1ccco1)c1c(C(F)(F)F)[n+]([O-])c2ccc(Cl)cc2[n+]1[O-],0.21 µM
7,O=C(c1ccc2ccccc2c1)c1c(C(F)(F)F)[n+]([O-])c2ccc(Cl)cc2[n+]1[O-],1.29 µM
8,O=C(c1ccc2ccccc2c1)c1c(C(F)(F)F)[n+]([O-])c2cc(F)c(F)cc2[n+]1[O-],1.71 µM
9,O=C(c1cccs1)c1c(C(F)(F)F)[n+]([O-])c2ccc(Cl)cc2[n+]1[O-],0.04 µM

# Assay: Anticancer activity against leukemia cells
# Assay type: functional
# Details: Homo sapiens, Leukemia cell
row,Compound,GI50
1,O=C(c1ccco1)c1c(C(F)(F)F)nc2cc(C(F)(F)F)ccc2[n+]1[O-],43.6 µM
2,O=C(c1ccco1)c1c(C(F)(F)F)[n+]([O-])c2cc(F)c(F)cc2[n+]1[O-],0.43 µM
3,COc1ccc2c(c1)[n+]([O-])c(C(=O)c1cccs1)c(C(F)(F)F)[n+]2[O-],4.43 µM
4,O=C(c1ccco1)c1c(C(F)(F)F)[n+]([O-])c2ccc(C(F)(F)F)cc2[n+]1[O-],0.21 µM
5,O=C(c1ccco1)c1nc2ccc(C(F)(F)F)cc2[n+]([O-])c1C(F)(F)F,48.4 µM
6,O=C(c1ccco1)c1c(C(F)(F)F)[n+]([O-])c2ccc(Cl)cc2[n+]1[O-],0.19 µM
7,O=C(c1ccc2ccccc2c1)c1c(C(F)(F)F)[n+]([O-])c2ccc(Cl)cc2[n+]1[O-],0.65 µM
8,O=C(c1ccc2ccccc2c1)c1c(C(F)(F)F)[n+]([O-])c2cc(F)c(F)cc2[n+]1[O-],0.77 µM
9,O=C(c1cccs1)c1c(C(F)(F)F)[n+]([O-])c2ccc(Cl)cc2[n+]1[O-],0.07 µM

# Assay: Anticancer activity against renal cancer cells
# Assay type: functional
# Details: Homo sapiens, Cancer cell lines
row,Compound,GI50
1,O=C(c1ccco1)c1c(C(F)(F)F)nc2cc(C(F)(F)F)ccc2[n+]1[O-],34.6 µM
2,O=C(c1ccco1)c1c(C(F)(F)F)[n+]([O-])c2cc(F)c(F)cc2[n+]1[O-],0.36 µM
3,COc1ccc2c(c1)[n+]([O-])c(C(=O)c1cccs1)c(C(F)(F)F)[n+]2[O-],5.11 µM
4,O=C(c1ccco1)c1c(C(F)(F)F)[n+]([O-])c2ccc(C(F)(F)F)cc2[n+]1[O-],0.43 µM
5,O=C(c1ccco1)c1nc2ccc(C(F)(F)F)cc2[n+]([O-])c1C(F)(F)F,49.7 µM
6,O=C(c1ccco1)c1c(C(F)(F)F)[n+]([O-])c2ccc(Cl)cc2[n+]1[O-],0.2 µM
7,O=C(c1ccc2ccccc2c1)c1c(C(F)(F)F)[n+]([O-])c2ccc(Cl)cc2[n+]1[O-],1.38 µM
8,O=C(c1ccc2ccccc2c1)c1c(C(F)(F)F)[n+]([O-])c2cc(F)c(F)cc2[n+]1[O-],2.18 µM
9,O=C(c1cccs1)c1c(C(F)(F)F)[n+]([O-])c2ccc(Cl)cc2[n+]1[O-],0.03 µM

# Assay: Anticancer activity against CNS cancer cells
# Assay type: functional
# Details: Homo sapiens, Cancer cell lines
row,Compound,GI50
1,O=C(c1ccco1)c1c(C(F)(F)F)nc2cc(C(F)(F)F)ccc2[n+]1[O-],24.4 µM
2,O=C(c1ccco1)c1c(C(F)(F)F)[n+]([O-])c2cc(F)c(F)cc2[n+]1[O-],0.37 µM
3,COc1ccc2c(c1)[n+]([O-])c(C(=O)c1cccs1)c(C(F)(F)F)[n+]2[O-],6.24 µM
4,O=C(c1ccco1)c1c(C(F)(F)F)[n+]([O-])c2ccc(C(F)(F)F)cc2[n+]1[O-],0.91 µM
5,O=C(c1ccco1)c1nc2ccc(C(F)(F)F)cc2[n+]([O-])c1C(F)(F)F,35.5 µM
6,O=C(c1ccco1)c1c(C(F)(F)F)[n+]([O-])c2ccc(Cl)cc2[n+]1[O-],0.77 µM
7,O=C(c1ccc2ccccc2c1)c1c(C(F)(F)F)[n+]([O-])c2ccc(Cl)cc2[n+]1[O-],1.47 µM
8,O=C(c1ccc2ccccc2c1)c1c(C(F)(F)F)[n+]([O-])c2cc(F)c(F)cc2[n+]1[O-],2.51 µM
9,O=C(c1cccs1)c1c(C(F)(F)F)[n+]([O-])c2ccc(Cl)cc2[n+]1[O-],0.09 µM

# Assay: Anticancer activity against prostate cancer cells
# Assay type: functional
# Details: Homo sapiens, Cancer cell lines
row,Compound,GI50
1,O=C(c1ccco1)c1c(C(F)(F)F)nc2cc(C(F)(F)F)ccc2[n+]1[O-],44.7 µM
2,O=C(c1ccco1)c1c(C(F)(F)F)[n+]([O-])c2cc(F)c(F)cc2[n+]1[O-],0.42 µM
3,COc1ccc2c(c1)[n+]([O-])c(C(=O)c1cccs1)c(C(F)(F)F)[n+]2[O-],2.48 µM
4,O=C(c1ccco1)c1c(C(F)(F)F)[n+]([O-])c2ccc(C(F)(F)F)cc2[n+]1[O-],0.42 µM
5,O=C(c1ccco1)c1nc2ccc(C(F)(F)F)cc2[n+]([O-])c1C(F)(F)F,35.1 µM
6,O=C(c1ccco1)c1c(C(F)(F)F)[n+]([O-])c2ccc(Cl)cc2[n+]1[O-],0.11 µM
7,O=C(c1ccc2ccccc2c1)c1c(C(F)(F)F)[n+]([O-])c2ccc(Cl)cc2[n+]1[O-],1.48 µM
8,O=C(c1ccc2ccccc2c1)c1c(C(F)(F)F)[n+]([O-])c2cc(F)c(F)cc2[n+]1[O-],1.46 µM
